From ChEMBL document CHEMBL3044836, “Synthesis, antimicrobial and cytotoxic activities of novel 4-trifluoromethyl-(1,2,3)-thiadiazolo-5-carboxylic acid hydrazide Schiffs bases” (Med Chem Res, 2013)
Converted amounts (≈) assume the structure as drawn.

Key:
Format in all cases: functional
[1] = tested on: Aspergillus niger; experiment: Antifungal activity against Aspergillus niger MTCC 1344 assessed as growth inhibition at 150 ug/ml after 48 hr by agar cup diffusion method; conditions: MTCC 1344, 48 h, read-out: DIZ
[2] = tested on: Aspergillus niger; experiment: Antifungal activity against Aspergillus niger MTCC 1344 assessed as growth inhibition at 100 ug/ml after 48 hr by agar cup diffusion method; conditions: MTCC 1344, 48 h, read-out: DIZ
[3] = tested on: Saccharomyces cerevisiae; experiment: Antifungal activity against Saccharomyces cerevisiae MTCC 36 assessed as growth inhibition at 150 ug/ml after 48 hr by agar cup diffusion method; conditions: MTCC 36, 48 h, read-out: DIZ
[4] = tested on: Saccharomyces cerevisiae; experiment: Antifungal activity against Saccharomyces cerevisiae MTCC 36 assessed as growth inhibition at 100 ug/ml after 48 hr by agar cup diffusion method; conditions: MTCC 36, 48 h, read-out: DIZ
[5] = tested on: Diutina rugosa; experiment: Antifungal activity against Candida rugosa NCIM 3462 assessed as growth inhibition at 150 ug/ml after 48 hr by agar cup diffusion method; conditions: NCIM 3462, 48 h, read-out: DIZ
[6] = tested on: Diutina rugosa; experiment: Antifungal activity against Candida rugosa NCIM 3462 assessed as growth inhibition at 100 ug/ml after 48 hr by agar cup diffusion method; conditions: NCIM 3462, 48 h, read-out: DIZ
[7] = tested on: Candida albicans; experiment: Antifungal activity against Candida albicans MTCC 227 assessed as growth inhibition at 150 ug/ml after 48 hr by agar cup diffusion method; conditions: MTCC 227, 48 h, read-out: DIZ
[8] = tested on: Candida albicans; experiment: Antifungal activity against Candida albicans MTCC 227 assessed as growth inhibition at 100 ug/ml after 48 hr by agar cup diffusion method; conditions: MTCC 227, 48 h, read-out: DIZ
[9] = tested on: Klebsiella pneumoniae; experiment: Antibacterial activity against Klebsiella pneumoniae assessed as growth inhibition by broth dilution method
[10] = tested on: Pseudomonas aeruginosa; experiment: Antibacterial activity against Pseudomonas aeruginosa MTCC 741 assessed as growth inhibition by broth dilution method
[11] = tested on: Staphylococcus aureus; experiment: Antibacterial activity against Staphylococcus aureus MTCC 96 assessed as growth inhibition by broth dilution method
[12] = tested on: Bacillus subtilis; experiment: Antibacterial activity against Bacillus subtilis MTCC 441 assessed as growth inhibition by broth dilution method; conditions: read-out: MIC
[13] = tested on: Staphylococcus epidermidis; experiment: Antibacterial activity against Staphylococcus epidermidis MTCC 435 assessed as growth inhibition by broth dilution method; conditions: read-out: MIC
[14] = tested on: Escherichia coli; experiment: Antibacterial activity against Escherichia coli MTCC 443 assessed as growth inhibition by broth dilution method
[15] = tested on: MCF7; experiment: Cytotoxicity against Homo sapiens (human) MCF7 cells assessed as cell viability at 10 uM after 48 hr by MTT assay relative to control; conditions: MCF7, 48 h, read-out: Activity
[16] = tested on: MDA-MB-231; experiment: Cytotoxicity against Homo sapiens (human) MDA-MB-231 cells assessed as cell viability at 10 uM after 48 hr by MTT assay relative to control; conditions: MDA-MB-231, 48 h, read-out: Activity

Structure (SMILES)	zone of inhibition at 150 µg/mL [1] [mm]	zone of inhibition at 100 µg/mL [2] [mm]	zone of inhibition at 150 µg/mL [3] [mm]	zone of inhibition at 100 µg/mL [4] [mm]	zone of inhibition at 150 µg/mL [5] [mm]	zone of inhibition at 100 µg/mL [6] [mm]	zone of inhibition at 150 µg/mL [7] [mm]	zone of inhibition at 100 µg/mL [8] [mm]	MIC ([9]; read-out: MIC) [µg/mL]	MIC ([10]; read-out: MIC) [µg/mL]	MIC ([11]; read-out: MIC) [µg/mL]	MIC [12] [µg/mL]	MIC [13] [µg/mL]	MIC ([14]; read-out: MIC) [µg/mL]	MIC [9] [µg/mL]	MIC [14] [µg/mL]	MIC [10] [µg/mL]	viability at 10 µM [15] [%]	viability at 10 µM [16] [%]	MIC [11] [µg/mL]
O=C(N/N=C/c1ccc([N+](=O)[O-])cc1)c1snnc1C(F)(F)F	0	0	0	0	0	0	0	0	150 (≈ 434 µM)	150 (≈ 434 µM)	150 (≈ 434 µM)	150 (≈ 434 µM)	150 (≈ 434 µM)	150 (≈ 434 µM)						
CN(C)c1ccc(/C=N/NC(=O)c2snnc2C(F)(F)F)cc1	0	0	0	0	0	0	0	0		150 (≈ 437 µM)	150 (≈ 437 µM)	150 (≈ 437 µM)	150 (≈ 437 µM)		> 150	> 150				
O=C(N/N=C/c1ccc(O)cc1)c1snnc1C(F)(F)F	0	0	0	0	0	0	0	0			150 (≈ 474 µM)	150 (≈ 474 µM)	150 (≈ 474 µM)	150 (≈ 474 µM)	> 150		> 150			
COc1ccc(/C=N/NC(=O)c2snnc2C(F)(F)F)cc1	0	0	0	0	0	0	0	0	150 (≈ 454 µM)	150 (≈ 454 µM)		150 (≈ 454 µM)	150 (≈ 454 µM)	150 (≈ 454 µM)				101	87.3	> 150
O=C(N/N=C/c1ccco1)c1snnc1C(F)(F)F	0	0	0	0	0	0	0	0	150 (≈ 517 µM)	150 (≈ 517 µM)	150 (≈ 517 µM)	150 (≈ 517 µM)	150 (≈ 517 µM)	150 (≈ 517 µM)				100	89.5	
O=C(N/N=C/c1cccs1)c1snnc1C(F)(F)F	0	0	0	0	0	0	0	0	150 (≈ 490 µM)		150 (≈ 490 µM)	150 (≈ 490 µM)	150 (≈ 490 µM)	150 (≈ 490 µM)			> 150	102	91.9	
C/C(=N\NC(=O)c1snnc1C(F)(F)F)c1ccccc1	0	0	0	0	0	0	0	0	150 (≈ 477 µM)	150 (≈ 477 µM)		150 (≈ 477 µM)	150 (≈ 477 µM)			> 150		115	94.5	> 150
CC1(C)S[C@@H]2[C@H](NC(=O)Cc3ccccc3)C(=O)N2[C@H]1C(=O)O [PENICILLIN G]									6.25 (≈ 18.7 µM)	12.5 (≈ 37.4 µM)	1.56 (≈ 4.67 µM)	1.56 (≈ 4.67 µM)	3.12 (≈ 9.35 µM)	12.5 (≈ 37.4 µM)						
CN[C@@H]1[C@H](O[C@H]2[C@H](O[C@H]3[C@H](O)[C@@H](O)[C@H](N=C(N)N)[C@@H](O)[C@@H]3N=C(N)N)O[C@@H](C)[C@]2(O)C=O)O[C@@H](CO)[C@H](O)[C@H]1O [STREPTOMYCIN]									3.12 (≈ 5.37 µM)	1.56 (≈ 2.69 µM)	6.25 (≈ 10.7 µM)	6.25 (≈ 10.7 µM)	3.12 (≈ 5.37 µM)	6.25 (≈ 10.7 µM)						
